What was measured:
Assay in all cases: Bliss excess, mean over the matrix (fraction); higher = more synergy
[1] = tested on: NCI-H526 (Small Cell Lung Carcinoma)
In short: (§1)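 Cell lines in DMEM/F12 or RPMI with 10% FBS were plated in 1536-well plates, held 24 hours at 37°C, 5% CO2, then given two-drug dose matrices for 72 hours (DMSO typically 0.2%). Viability was read by CellTiter-Glo 2.0 luminescence and scaled as inhibition from 0 (vehicle wells) to 1 (blank wells). Combination Emax is the second-highest inhibition in the matrix; Bliss excess is observed combination effect minus expected EA + EB − EA·EB, EA and EB being single-agent effects.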

[2] = tested on: ST486 (Burkitt's Lymphoma)
In short: as §1

[3] = tested on: H9 (T-Cell Non-Hodgkin's Lymphoma)
In short: as §1

[4] = tested on: DMS-114 (Small Cell Lung Carcinoma)
In short: as §1

[5] = tested on: MOG-G-CCM (Low Grade Glioma)
In short: as §1

[6] = tested on: SUP-B15 (B-Lymphoblastic Leukemia)
In short: as §1

[7] = tested on: CW-2 (Colorectal Carcinoma)
In short: as §1

[8] = tested on: HCC1419 (Breast Carcinoma)
In short: as §1

RD (Rhabdomyosarcoma) = tested on: RD (Rhabdomyosarcoma)
In short: as §1

[9] = tested on: DAN-G (Pancreatic Carcinoma)
In short: as §1

[10] = tested on: NCCIT (Other Solid Carcinomas)
In short: as §1

[11] = tested on: HCC1187 (Breast Carcinoma)
In short: as §1

[12] = tested on: KYSE-270 (Esophageal Squamous Cell Carcinoma)
In short: as §1

[13] = tested on: MN-60 (B-Lymphoblastic Leukemia)
In short: as §1

[14] = tested on: SK-GT-4 (Esophageal Adenocarcinoma)
In short: as §1

[15] = tested on: VMRC-RCZ (Kidney Carcinoma)
In short: as §1

[16] = tested on: PC-3 (Prostate Carcinoma)
In short: as §1

[17] = tested on: KU812 (Chronic Myelogenous Leukemia)
In short: as §1

[18] = tested on: CHSA8926 (Chondrosarcoma)
In short: as §1

[19] = tested on: NCI-H3122 (Lung Adenocarcinoma)
In short: as §1

Compound | Bliss excess [1] | Bliss excess [2] | Bliss excess [3] | Bliss excess [4] | Bliss excess [5] | Bliss excess [6] | Bliss excess [7] | Bliss excess [8] | Bliss excess (RD (Rhabdomyosarcoma)) | Bliss excess [9] | Bliss excess [10] | Bliss excess [11] | Bliss excess [12] | Bliss excess [13] | Bliss excess [14] | Bliss excess [15] | Bliss excess [16] | Bliss excess [17] | Bliss excess [18] | Bliss excess [19]
COc1cccc2c1C(=O)c1c(O)c3c(c(O)c1C2=O)C[C@@](O)(C(=O)CO)C[C@@H]3O[C@H]1C[C@H](N)[C@H](O)[C@H](C)O1 [Doxorubicin] + Cc1cc2ncnn2cc1Nc1ncc2c(n1)n(C1CCOCC1)c(=O)n2C [AZD7648] (first compound max 1 µM, 7x7, partner max 10 µM) | 0.0586 | 0.0895 | 0.0887 | 0.0288 | 0.0213 | 0.153 | -0.0002 | -0.128 | 0.0368 | 0.0173 | -0.0142 | 0.114 | 0.0494 | 0.0759 | -0.0081 | -0.024 | 0.0175 | 0.0256 | -0.0053 | 0.031
COc1cccc(OCCCN)c1-c1cc(Nc2cnc(C#N)cn2)n[nH]1 [Prexasertib] + C=CCn1c(=O)c2cnc(Nc3ccc(N4CCN(C)CC4)cc3)nc2n1-c1cccc(C(C)(C)O)n1 [AZD1775] (first compound max 1 µM, partner max 1 µM) | 0.0502 | 0.0276 | 0.0958 | 0.0129 | 0.0748 | 0.0224 | 0.0224 | -0.0136 | 0.0732 | -0.0093 | 0.0561 | 0.102 | 0.217 | 0.0534 | 0.0313 | -0.02 | 0.0469 | -0.0401 | -0.0416 | 0.124
COc1cccc(OCCCN)c1-c1cc(Nc2cnc(C#N)cn2)n[nH]1 [Prexasertib] + CCc1c2c(nc3ccc(O)cc13)-c1cc3c(c(=O)n1C2)COC(=O)[C@]3(O)CC [SN-38] (first compound max 1 µM, 7x7, partner max 0.3 µM) | -0.0164 | 0.0412 | -0.0004 | 0.0663 | 0.0411 | -0.0197 | -0.0035 | -0.0098 | 0.065 | 0.0239 | 0.0269 | 0.164 | 0.0028 | -0.0452 | -0.0304 | 0.0578 | -0.0185 | -0.124 | -0.0024 | -0.002
COc1cccc(OCCCN)c1-c1cc(Nc2cnc(C#N)cn2)n[nH]1 [Prexasertib] + CN(C)CCCOc1ccc(-c2ccc3ncc4c(c3c2)n(C2CCOCC2)c(=O)n4C)cn1 [AZD0156] (first compound max 1 µM, 7x7, partner max 1 µM) | -0.0158 | -0.0139 | 0.0022 | 0.0778 | -0.0184 | -0.0513 | 0.0498 | -0.0285 | -0.0008 | -0.0132 | 0.0017 | -0.0016 | -0.0024 | -0.0077 | -0.0116 | -0.0279 | -0.0352 | -0.061 | -0.039 | 0.0204
COc1cccc(OCCCN)c1-c1cc(Nc2cnc(C#N)cn2)n[nH]1 [Prexasertib] + C[C@@H]1COCCN1C2=NC(=NC(=C2)C3(CC3)[S@](=N)(=O)C)C4=C5C=CNC5=NC=C4 [AZD6738] (first compound max 1 µM, 7x7, partner max 10 µM) | 0.0283 | -0.0336 | -0.0023 | 0.0485 | -0.0254 | -0.0671 | 0.0785 | -0.0473 | 0.0085 | -0.0309 | 0.011 | 0.0754 | -0.0323 | -0.0035 | -0.0233 | 0.0255 | -0.0102 | -0.046 | 0.0171 | 0.0704
COc1cccc(OCCCN)c1-c1cc(Nc2cnc(C#N)cn2)n[nH]1 [Prexasertib] + Cc1cc2ncnn2cc1Nc1ncc2c(n1)n(C1CCOCC1)c(=O)n2C [AZD7648] (first compound max 1 µM, 7x7, partner max 10 µM) | -0.0038 | -0.0289 | 0.0256 | 0.0127 | -0.0037 | -0.0406 | 0.043 | -0.0211 | -0.0283 | -0.0095 | -0.0331 | 0.0307 | -0.0355 | 0.0271 | -0.088 | -0.0074 | -0.036 | -0.0891 | -0.0143 | 0.0055
COc1cccc(OCCCN)c1-c1cc(Nc2cnc(C#N)cn2)n[nH]1 [Prexasertib] + O=C(c1cc(Cc2n[nH]c(=O)c3ccccc23)ccc1F)N1CCN(C(=O)C2CC2)CC1 [Olaparib] (first compound max 1 µM, 7x7, partner max 10 µM) | -0.0214 | -0.0406 | -0.0088 | 0.0146 | -0.053 | -0.0191 | -0.0281 | -0.0229 | -0.0444 | -0.0164 | -0.103 | -0.0164 | -0.0789 | -0.0494 | -0.0984 | -0.049 | -0.0355 | -0.0947 | -0.0147 | 0.0161
COc1cc2c(cc1OCCCCCOc1cc3c(cc1OC)C(=O)N1C=C(C)C[C@H]1C=N3)N=C[C@@H]1CC(C)=CN1C2=O [SG3199] + O=C(c1cc(Cc2n[nH]c(=O)c3ccccc23)ccc1F)N1CCN(C(=O)C2CC2)CC1 [Olaparib] (first compound max 0.001 µM, 7x7, partner max 10 µM) | -0.0148 | -0.0258 | -0.0205 | -0.0398 | -0.0387 | -0.0051 | -0.0126 | -0.119 | -0.0453 | -0.0266 | -0.0225 | -0.006 | -0.0595 | -0.027 | -0.0661 | -0.0461 | -0.0417 | -0.0288 | -0.0566 | -0.0385
CCc1c2c(nc3ccc(O)cc13)-c1cc3c(c(=O)n1C2)COC(=O)[C@]3(O)CC [SN-38] + CN(C)CCCOc1ccc(-c2ccc3ncc4c(c3c2)n(C2CCOCC2)c(=O)n4C)cn1 [AZD0156] (first compound max 0.3 µM, 7x7, partner max 1 µM) | 0.0215 | 0.0498 | 0.116 | 0.0147 | 0.0143 | -0.0408 | -0.0118 | -0.0773 | -0.0329 | 0.0626 | 0.0163 | -0.0347 | -0.0393 | 0.0279 | -0.12 | -0.0124 | -0.0306 | -0.027 | -0.0646 | 0.0427
C[C@@H](c1ccc2nccn2c1)n1nnc2ncc(-c3cnn(C)c3)nc21 [Savolitinib] + CC1(C)CCC(CN2CCN(c3ccc(C(=O)NS(=O)(=O)c4ccc(NCC5CCOCC5)c([N+](=O)[O-])c4)c(Oc4cnc5[nH]ccc5c4)c3)CC2)=C(c2ccc(Cl)cc2)C1 [Venetoclax] (first compound max 1 µM, 7x7, partner max 1 µM) | 0.0111 | -0.0481 | -0.0453 | 0.0131 | -0.0448 | -0.0465 | -0.0459 | -0.0225 | -0.0598 | -0.09 | -0.0394 | -0.0494 | -0.0463 | -0.0341 | -0.0732 | -0.0374 | -0.0806 | -0.0303 | 0.0023 | -0.0394
C[C@@H](c1ccc2nccn2c1)n1nnc2ncc(-c3cnn(C)c3)nc21 [Savolitinib] + Cc1c2c(nn1C)CSCc1cc(n(C)n1)CSc1cc(c3ccccc3c1)OCCCc1c(C(=O)O)n(C)c3c-2c(Cl)ccc13 [AZD5991] (first compound max 1 µM, 7x7, partner max 1 µM) | -0.025 | -0.0159 | 0.0005 | -0.0755 | -0.0683 | -0.0555 | -0.0263 | 0.0448 | -0.0177 | -0.0434 | -0.0528 | -0.0038 | 0.0527 | -0.0334 | -0.0519 | -0.0297 | -0.0402 | 0.0064 | 0.0233 | -0.0562
Cn1cnc2c(F)c(Nc3ccc(Br)cc3Cl)c(C(=O)NOCCO)cc21 [Selumetinib] + C=CCn1c(=O)c2cnc(Nc3ccc(N4CCN(C)CC4)cc3)nc2n1-c1cccc(C(C)(C)O)n1 [AZD1775] (first compound max 10 µM, partner max 1 µM) | -0.052 | 0.0165 | -0.0037 | -0.0351 | -0.0923 | 0.0934 | -0.005 | -0.0697 | -0.0128 | 0.014 | -0.0826 | -0.0201 | -0.0654 | -0.0154 | -0.0203 | -0.066 | -0.0947 | -0.0367 | -0.0377 | -0.126
Cn1cnc2c(F)c(Nc3ccc(Br)cc3Cl)c(C(=O)NOCCO)cc21 [Selumetinib] + CC(C)n1c(=O)n(C)c2cnc3cc(F)c(-c4ccc(OCCCN5CCCCC5)nc4)cc3c21 [AZD1390] (first compound max 10 µM, 7x7, partner max 0.3 µM) | -0.0186 | -0.0391 | -0.0033 | -0.0191 | -0.0476 | -0.0281 | -0.0383 | -0.0426 | -0.0405 | -0.0484 | -0.041 | 0.0068 | -0.0376 | -0.0402 | 0.0162 | -0.0387 | -0.0688 | -0.0227 | -0.0477 | 0.0111
Cn1cnc2c(F)c(Nc3ccc(Br)cc3Cl)c(C(=O)NOCCO)cc21 [Selumetinib] + CCN(CCO)CCCOc1ccc2c(Nc3cc(CC(=O)Nc4cccc(F)c4)[nH]n3)ncnc2c1 [AZD2811] (first compound max 10 µM, 7x7, partner max 1 µM) | -0.017 | 0.0872 | -0.0129 | -0.0166 | -0.0745 | 0.0553 | -0.0142 | -0.0451 | -0.0016 | 0.0445 | -0.0657 | -0.0374 | 0.0103 | -0.0202 | -0.0533 | -0.0501 | -0.057 | -0.0731 | -0.0593 | 0.0093
Cn1cnc2c(F)c(Nc3ccc(Br)cc3Cl)c(C(=O)NOCCO)cc21 [Selumetinib] + C[C@@H]1COCCN1C2=NC(=NC(=C2)C3(CC3)[S@](=N)(=O)C)C4=C5C=CNC5=NC=C4 [AZD6738] (first compound max 10 µM, 7x7, partner max 10 µM) | -0.0544 | -0.0592 | -0.03 | -0.0395 | -0.0704 | 0.142 | 0.009 | -0.0522 | 0.0877 | 0.0105 | -0.0802 | -0.0539 | -0.0302 | -0.0319 | 0.017 | -0.0594 | -0.036 | -0.0779 | -0.031 | -0.0471
